Assay results from US20080279897A1, “Method of Treating Cellular Damage” (MEDVET SCIENCE PTY. LTD., priority 2005, published 2008).
Where a chain is given by its changes, count along the chain named. In names and notes the source's numbering stands.

How the values were obtained:
SphK [1] = test: SphK activity in HUVEC; format: cell-based, human; settings: for effect on SphK activity: 22 mmol/L, osmotic control; for effect on high glucose-induced increases in SphK activity: PD98059 10 μM, U0126 2 μM
Protocol: Human umbilical vein EC (HUVEC) and bovine aortic EC (BAEC) were routinely cultured in this laboratory as previously described ([…] et al., 2004, Circ. Res. 94:1515-1522). In all experiments EC ranging from passage 2-6 were used. For the experimental studies, EC were allowed to reach confluence in the regular growth media. Medium was then changed to (i) EBM (Clonetics, Walkersville, Md.) containing 1% FCS and 5.5 mM glucose (normal glucose, NG); (ii) NG medium supplemented with additional glucose to final concentration of 22 mM (high glucose); or (iii) NG medium containing 16.5 mM L-glucose or mannitol that served as an osmotic control for the high glucose medium. As described previously (Xia et al., 1999, J. Biol. […] The formation of S1P in vivo was measured in the permeabilized cells as previously described (Xia et al., 1998, Proc. Natl. Acad. Sci. U.S.A 95:14196-14201).

PKC = PKC activity assay in situ in HUVEC; format: cell-based, human; settings: 2.5 μmol/L, high glucose
Protocol: PKC activity was measured in situ as described previously (Xia et al., 1996, J. Clin. Invest 98:2018-2026). Briefly, cells were seeded in 24-well plates and exposed to NG or HG for 3 days. After the indicated treatments, total PKC activity was then determined in permeabilized cells in the presence of 10 μM [γ^32P]ATP (5000 cpm/pmol) and the PKC-specific peptide substrate (RKRTLRRL, 200 μM). The activity was then quantified by scintillation counting and normalized to total protein levels.

VCAM-1 = test: Cell surface VCAM-1 expression in HUVEC by flow cytometry; format: cell-based, human
Protocol: (§1) Human umbilical vein EC (HUVEC) and bovine aortic EC (BAEC) were routinely cultured in this laboratory as previously described (Verrier et al., 2004, Circ. Res. 94:1515-1522). In all experiments EC ranging from passage 2-6 were used. For the experimental studies, EC were allowed to reach confluence in the regular growth media. Medium was then changed to (i) EBM (Clonetics, Walkersville, Md.) containing 1% FCS and 5.5 mM glucose (normal glucose, NG); (ii) NG medium supplemented with additional glucose to final concentration of 22 mM (high glucose); or (iii) NG medium containing 16.5 mM L-glucose or mannitol that served as an osmotic control for the high glucose medium.
(§2) After the indicated treatment, HUVECs were incubated with primary monoclonal antibodies to VCAM-1, ICAM-1 and E-selectin or an isotype-matched non-relevant antibody for 30 min. Cells were then incubated with FITC-conjugated secondary antibody and fixed in 2.5% formaldehyde. The expression of cell-surface adhesion molecules was measured as fluorescence intensity by use of a Coulter Epics Profile XL flow cytometer, as described previously (Verrier et al., 2004, supra).

ICAM-1 = test: Cell surface ICAM-1 expression in HUVEC by flow cytometry; format: cell-based, human
Protocol: as §1, §2

E-selectin = test: Cell surface E-selectin expression in HUVEC by flow cytometry; format: cell-based, human; settings: for effect on E-selectin expression: 5 μM for 6 hrs
Protocol: as §1, §2

NF-κB [2] = test: NF-κB electrophoretic mobility shift assay in HUVEC; format: cell-based, human; settings: 2.5 μM, gel shift
Protocol: (§3) Nuclear extracts were prepared from EC exposed to NG or HG with or without the indicated treatment. The double-stranded oligonucleotides used as probes in the experiments included 5′-[…]-3′ (SEQ ID NO: 1) which contains a consensus NF-κB binding site in E-selectin promoter (underlined). Gel mobility shift of a consensus NF-κB oligonucleotide was performed by incubating a ^32P-labelled NF-κB probe with 4 μg of nuclear proteins as described previously (Xia et al., 1998, supra).

SphK [3] = test: SphK activity in BAEC (parental or transfected); format: cell-based, bovine; settings: for effect on SphK activity: BAEC, 22 mmol/L, osmotic control
Protocol: as §1
(§4) FLAG-tagged human wild-type SphK1 cDNA and the dominant negative SphK1^G82D were sub-cloned into pcDNA3 plasmids (Invitrogen, Melbourne, Australia) as previous described (Pitson et al., 2000, J. Biol. Chem. 275:33945-33950). Lipofectamine 2000 (Invitrogen) mediated transfection was performed in BAEC according to the manufacturer's protocols. For stable expression, the transfectants were selected in medium containing 800 μg/ml G418 (Invitrogen). The resulting non-clonal pools of G418-resistant transfected cells were then collected and used to avoid clonal variability. The expression of FLAG-tagged transgenes was determined by Westernblot assay with the antibodies against FLAG (M2, Sigma, Clayton, Australia).
(§5) As described previously (Xia et al., 1999, J. Biol. Chem. 274:34499-34505), SphK activity was routinely determined using D-erythro-sphingosine (Biomol, Plymouth Meeting, Pa.) and [γ^32P]ATP (Geneworks, Adelaide, Australia) as substrates, and defined as picomoles of S1P formed per min per mg protein. The formation of S1P in vivo was measured in the permeabilized cells as previously described (Xia et al., 1998, Proc. Natl. Acad. Sci. U.S.A 95:14196-14201).

S1P formation = S1P formation in endothelial cells; format: cell-based, human; settings: 22 mmol/L
Protocol: as §1, §5

[4] = tested on: U937 cells adhering to HUVEC; test: Adherence of U937 cells to HUVEC; format: cell-based, human; settings: 50 ng/ml
Protocol: (§6) U937 cells (CRL 1593.2; ATCC) were grown in RPMI-1640 medium (GIBCO BRL) containing 10% FCS, collected by low-speed centrifugation and resuspended at a density of 2×10^5 cells/ml in medium without FCS. EC were seeded into 24-well plates and cultured with NG or HG medium for 3 days after confluence. After washing twice with warm RPMI-1640 medium, the U937 cell suspension (100 μl/well) was added and incubated for 30 minutes at 37° C. Non-adherent cells were removed by rinsing the plates three times with PBS, and the number of adherent cells was then counted under microscopy with at least 6 fields per well culture being quantified.

[5] = tested on: U937 cells adhering to BAEC; test: Adherence of U937 cells to transfected BAEC; format: cell-based, bovine; settings: stably transfected BAEC, 22 mM glucose 3 days
Protocol: as §4, §6

NF-κB [6] = test: NF-κB electrophoretic mobility shift assay in BAEC; format: cell-based, bovine; settings: gel shift
Protocol: as §4, §3

[7] = 2.5 μmol/L, 3 days high glucose

Q: With `CCCCCCCCCCCCC/C=C/[C@@H](O)[C@H](CO)N(C)C` [DMS, N′N′-dimethylsphingosine] as the molecule, how does the “inhibition of high glucose-induced SphK activity” value (SphK [1]; 2.5 μmol/L) read?
A: capable of inhibiting

Q: And the “inhibitory effect on PKC activity” value (PKC)?
A: no inhibitory effect

Q: And the “effect on high glucose-induced increase in VCAM-1 expression” value (VCAM-1; [7])?
A: completely abolished

Q: What about the “effect on high glucose-induced increase in ICAM-1 expression” value (ICAM-1; [7]) of the same molecule?
A: completely abolished

Q: What about the “effect on high glucose-induced increase in E-selectin expression” value (E-selectin; [7]) of the same molecule?
A: completely abolished

Q: And the “effect on high glucose-induced NF-κB activation” value (NF-κB [2])?
A: completely inhibited

Q: `CN(C)CCCn1cc(C2=C(c3c[nH]c4ccccc34)C(=O)NC2=O)c2ccccc21` [GF109203X] was tested. Which “attenuation of high glucose-induced increases in SphK activity” value (SphK [1]; 5 μM, 30 min) did it give?
A: ~50%

Q: With `O=C[C@@H](O)[C@H](O)[C@@H](O)[C@@H](O)CO` [L-glucose] as the molecule, how does the “effect on SphK activity” value (SphK [1]) read?
A: neither mannitol nor L-glucose at 22 mmol/L had any significant effects

Q: And the “effect on SphK activity” value (SphK [3])?
A: neither mannitol nor L-glucose at 22 mmol/L had any significant effects

Q: What about the “effect on S1P production” value (S1P formation) of the same molecule?
A: fails to activate sphingosine kinase or effect S1P production

Q: For `COc1cccc(-c2cc(=O)c3ccccc3o2)c1N` [PD98059], which “effect on high glucose-induced increases in SphK activity” value (SphK [1]; 30 min) is on record?
A: completely prevented

Q: For `CCCCCCCCCCCCC/C=C/[C@@H](O)[C@@H](N)COP(=O)(O)O` [S1P, sphingosine-1-phosphate], which “effect on E-selectin expression” value (E-selectin) is on record?
A: significant increase

Q: For `N#CC(=C(/N)Sc1ccccc1N)/C(C#N)=C(\N)Sc1ccccc1N` [U0126], which “effect on high glucose-induced increases in SphK activity” value (SphK [1]; 30 min) is on record?
A: completely prevented

Q: `CCCCCCCCCCCCCCC[C@@H](O)[C@@H](N)COP(=O)(O)O` [dihydro-S1P, sphinganine-1-phosphate] was tested. Which “effect on E-selectin expression” value (E-selectin) did it give?
A: no significant effect

Q: For `OC[C@@H](O)[C@@H](O)[C@H](O)[C@H](O)CO` [mannitol], which “effect on SphK activity” value (SphK [1]) is on record?
A: neither mannitol nor L-glucose at 22 mmol/L had any significant effects

Q: What about the “effect on SphK activity” value (SphK [3]) of the same molecule?
A: neither mannitol nor L-glucose at 22 mmol/L had any significant effects

Q: And the “effect on S1P production” value (S1P formation)?
A: fails to activate sphingosine kinase or effect S1P production

Q: Which “effect on E-selectin expression” value (E-selectin) does the source give for lysophosphatidic acid [LPA] here?
A: significant increase

Q: Which “inhibition of high glucose-induced expression of VCAM-1” value (VCAM-1; 50 ng/ml, vs untreated cells) does the source give for pertussis toxin here?
A: 30%

Q: And the “inhibition of high glucose-induced expression of ICAM-1” value (ICAM-1; 50 ng/ml, vs untreated cells)?
A: 42%

Q: And the “inhibition of high glucose-induced expression of E-selectin” value (E-selectin; 50 ng/ml, vs untreated cells)?
A: 35%

Q: And the “inhibition of LPA-induced E-selectin expression” value (E-selectin; 5 μM LPA 6 hrs, PTX 50 ng/ml)?
A: completely inhibited

Q: And the “inhibition of S1P-induced E-selectin expression” value (E-selectin; 5 μM S1P 6 hrs, PTX 50 ng/ml)?
A: 32%

Q: What about the “number of leukocytes adhering to high glucose-stimulated EC” value [4] of the same molecule?
A: partially, but significantly, reduced

B1: SphK^WT: FLAG-tagged wild-type human SphK1 stably overexpressed in BAEC by transfection (protein, UniProt Q9NYA1 1-384, looked up)
Sphingosine kinase 1: MDPAGGPRGVLPRPCRVLVLLNPRGGKGKALQLFRSHVQPLLAEAEISFTLMLTERRNHARELVRSEELGRWDALVVMSGDGLMHEVVNGLMERPDWETAIQKPLCSLPAGSGNALAASLNHYAGYEQVTNEDLLTNCTLLLCRRLLSPMNLLSLHTASGLRLFSVLSLAWGFIADVDLESEKYRRLGEMRFTLGTFLRLAALRTYRGRLAYLPVGRVGSKTPASPVVVQQGPVDAHLVPLEEPVPSHWTVVPDEDFVLVLALLHSHLGSEMFAAPMGRCAAGVMHLFYVRAGVSRAMLLRLFLAMEKGRHMEYECPYLVYVPVVAFRLEPKDGKGVFAVDGELMVSEAVQGQVHPNYFWMVSGCVEPPPSWKPQQMPPPEEPL
modifications: FLAG tag
notes: FLAG-tagged wild-type human SphK1 stably overexpressed in BAEC by transfection
Q: What does the source list for B1?
A: basal level of SphK activity, higher than control cells (SphK [3]; stably transfected BAEC): 10 fold; number of leukocytes adhering to high glucose-stimulated BAEC [5]: markedly enhanced

B2: SphK^G82D: point mutation of human SphK1, dominant-negative mutant, stably expressed in BAEC by transfection (protein, UniProt Q9NYA1 1-384, looked up, variant G82D)
Sphingosine kinase 1: B1 Sphingosine kinase 1 with G82D
Q: Which results are given for B2?
A: SphK activation under high glucose conditions (SphK [3]; BAEC expressing the mutant, 22 mM glucose 3 days): no SphK activation; number of leukocytes adhering to high glucose-stimulated BAEC [5]: profoundly attenuated; high glucose-induced NF-κB activation in cells expressing the mutant (NF-κB [6]): incapable of activating NF-κB
